How the values were obtained:
HCT 116 p53^+/+ cells = assay: MTS cytotoxicity assay, HCT 116 p53+/+; type: cell-based, human
Description: (§1) M. Rusin from the Maria Sklodowska-Curie Memorial Cancer Centre and Institute of Oncology in Gliwice, Poland. […] G. Kramer-Marek from the Institute of Cancer Research in London, United Kingdom. The human suspension chronic myelogenous leukemia cell line K562 and pancreas ductal adenocarcinoma cell line PANC-1 were purchased from Sigma-Aldrich (St. Louis, MO, USA), while the normal human dermal fibroblasts cell line NHDF were purchased from PromoCell. […] Each medium contained a combination of two antibiotics: penicillin and streptomycin (1% v/v; Gibco). All of these cell lines were grown under standard conditions at 37 °C with a 5% CO2 humidified atmosphere. Moreover, all of the cell lines were routinely tested for mycoplasma using the PCR technique with specific Mycoplasma primers to confirm that there was no contamination.
(§2) The assay was performed following a 72 h incubation with the various concentrations of the tested compounds. Then, 100 µL DMEM without phenol red with 20 µL of the CellTiter 96®AQueous One Solution-MTS (Promega, Promega, WI, USA) was added to each well and incubated for 1 h or 3 h (PANC-1) at 37 °C. The optical densities of the samples were measured at 490 nm using a multi-plate reader (Synergy 4, BioTek, Winooski, VT, USA). […] Each individual compound was tested in triplicate in a single experiment with each experiment being performed three or four times.

MCF-7 cells = assay: MTS cytotoxicity assay, MCF-7; type: cell-based, human
Description: as §1, §2

A549 cells = assay: MTS cytotoxicity assay, A549; type: cell-based, human
Description: as §1, §2

U-251 cells [1] = assay: MTS cytotoxicity assay, U-251; type: cell-based, human
Description: as §1, §2

ABL1 = biological target: T1, ABL1 (Homo sapiens, UniProt P00519); assay: Tyrosine kinase assay (Kinase Selectivity TK-2, ADP-Glo); type: biochemical; settings: read-out: Inhibitory Effect of the Tyrosine Kinase Activity, ABL1
T1 construct: purchased Promega
Description: (§3) Assays using the Kinase Selectivity TK-2 profiling systems and ADP-Glo Kinase Assay (both from Promega) were performed to determine the inhibition of the non-receptor tyrosine kinases. The protocol was previously designed and described by our group in reports. The experiments were performed at least four times. The data are expressed as the percentage of the inhibition activity of tyrosine kinase after treatment with the tested derivatives.

BRK = biological target: T2, BRK (Homo sapiens, UniProt Q13882); assay: as above; type: biochemical; settings: read-out: Inhibitory Effect of the Tyrosine Kinase Activity, BRK
T2 construct: purchased Promega
Description: as §3

BTK = biological target: T3, BTK (Homo sapiens, UniProt Q06187); assay: as above; type: biochemical; settings: read-out: Inhibitory Effect of the Tyrosine Kinase Activity, BTK
T3 construct: purchased Promega
Description: as §3

CSK = biological target: T4, CSK (Homo sapiens, UniProt P41240); assay: as above; type: biochemical; settings: read-out: Inhibitory Effect of the Tyrosine Kinase Activity, CSK
T4 construct: purchased Promega
Description: as §3

Fyn A = biological target: T5, Fyn A (Homo sapiens, UniProt P06241); assay: as above; type: biochemical; settings: read-out: Inhibitory Effect of the Tyrosine Kinase Activity, Fyn A
T5 construct: purchased Promega
Description: as §3

Lck = biological target: T6, Lck (Homo sapiens, UniProt P06239); assay: as above; type: biochemical; settings: read-out: Inhibitory Effect of the Tyrosine Kinase Activity, Lck
T6 construct: purchased Promega
Description: as §3

Lyn B = biological target: T7, Lyn B (Homo sapiens, UniProt P07948); assay: as above; type: biochemical; settings: read-out: Inhibitory Effect of the Tyrosine Kinase Activity, Lyn B
T7 construct: purchased Promega
Description: as §3

Src = biological target: T8, Src (Homo sapiens, UniProt P12931); assay: as above; type: biochemical; settings: read-out: Inhibitory Effect of the Tyrosine Kinase Activity, Src
T8 construct: purchased Promega
Description: as §3

U-251 cells [2] = assay: Immunoblotting with densitometry, U-251; type: cell-based, human
Description: The K562 and U-251 cells were seeded in 3 cm Petri dishes (Nunc) at a density of 500,000 cells per well and incubated overnight. […] Next, the cell pellets were resuspended in an RIPA buffer containing a Halt Protease Inhibitor Cocktail and a Halt Phosphatase Inhibitor Cocktail along with 0.5 M EDTA (all from Thermo Scientific, Waltham, MA, USA) and lysed on ice for 20 min. Then, the obtained lysates were sonicated and centrifuged at 10,000 rpm for 10 min at 4 °C. The supernatants were collected for further analysis. The protein concentration was measured using a Micro BCA™ Protein Assay Kit (Thermo Scientific) according to the manufacturer’s instructions. Equal amounts of the proteins (16 μg) were electrophoresed on SDS-Page gels and transferred onto nitrocellulose membranes. The membranes were blocked in 5% non-fat milk prepared in TPBS (PBS containing 0.1% Tween-20) for 1 h. After blocking, the membranes were incubated with the specific primary antibodies (all from Cell Signaling) at a 1:1000 dilution—cyclin E, cdc2, PARP, AIF, BID, p53, p21^Waf1/Cip1, HIF-1α, cathepsin B and caspase-9—and at a 1:2000 dilution for the reference proteins—vinculin, β-actin and GAPDH—overnight at 4 °C. The next day, the membranes were washed in TPBS and incubated with horseradish peroxidase (HRP)-conjugated secondary antibodies for 1 h at room temperature. Lastly, the membranes were washed in TPBS and incubated with a SuperSignal™ West Pico Chemiluminescent Substrate (Thermo Scientific). The chemiluminescence signals were captured using a ChemiDoc™ XRS + System (Biorad). The experiments were performed at least four to five times. The densitometric analysis was conducted using ImageJ software (Wayne Rasband, National Institutes of Health, Bethesda, MD, USA).
The band intensity of tested proteins (p53, cyclin E1, cdc2, p21, HIF-1α, cathepsin b, PARP, caspase-9, BID, AIF) were analyzed by densitometry readings/intensity ratio, using ImageJ software (NIH) and were normalized to the corresponding reference proteins (GAPDH, vinculin or β-actin) value.
The densitometric readings/intensity ratio data from four/five independent experiments (compared to control): […]
p53/ Refer- p21/ Refer- cdc2/ Refer- Cyclin E1/ HIF-1α/ Cathepsin b/Reference ence ence ence Reference Reference
PARP/Reference BID/ Reference Caspase-9/Reference […]

[3] = U-251, 4µM, 24 h, control 0.330
[4] = U-251, 4µM, 24 h, control 1.000

T2 sequence (Q13882 whole entry): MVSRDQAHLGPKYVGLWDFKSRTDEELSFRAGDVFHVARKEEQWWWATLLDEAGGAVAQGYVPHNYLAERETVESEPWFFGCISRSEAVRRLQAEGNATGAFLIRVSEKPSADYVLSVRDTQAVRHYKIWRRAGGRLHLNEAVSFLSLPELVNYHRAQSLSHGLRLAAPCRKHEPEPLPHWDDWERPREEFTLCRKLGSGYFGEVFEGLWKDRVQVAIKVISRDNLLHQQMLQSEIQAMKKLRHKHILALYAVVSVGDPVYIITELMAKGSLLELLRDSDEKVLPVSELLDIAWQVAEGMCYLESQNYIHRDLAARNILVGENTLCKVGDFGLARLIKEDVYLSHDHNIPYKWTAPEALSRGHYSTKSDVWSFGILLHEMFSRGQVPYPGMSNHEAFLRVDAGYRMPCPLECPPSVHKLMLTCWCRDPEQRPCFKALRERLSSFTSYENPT
T8 sequence (P12931 whole entry): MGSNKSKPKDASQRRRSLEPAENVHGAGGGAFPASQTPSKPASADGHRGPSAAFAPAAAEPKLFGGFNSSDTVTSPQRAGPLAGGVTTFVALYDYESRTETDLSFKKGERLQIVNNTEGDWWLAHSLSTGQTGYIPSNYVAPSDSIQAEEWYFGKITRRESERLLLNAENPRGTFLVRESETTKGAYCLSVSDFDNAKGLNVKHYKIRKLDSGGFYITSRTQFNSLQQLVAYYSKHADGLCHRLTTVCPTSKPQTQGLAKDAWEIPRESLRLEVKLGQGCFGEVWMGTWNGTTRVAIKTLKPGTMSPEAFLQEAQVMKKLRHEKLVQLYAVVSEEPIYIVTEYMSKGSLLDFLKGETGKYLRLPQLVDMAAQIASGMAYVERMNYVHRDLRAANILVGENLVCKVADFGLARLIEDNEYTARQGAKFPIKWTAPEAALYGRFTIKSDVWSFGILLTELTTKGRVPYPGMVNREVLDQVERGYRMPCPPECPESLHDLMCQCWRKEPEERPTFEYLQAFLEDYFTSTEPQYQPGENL
T7 sequence (P07948 1-491 isoform P07948-2): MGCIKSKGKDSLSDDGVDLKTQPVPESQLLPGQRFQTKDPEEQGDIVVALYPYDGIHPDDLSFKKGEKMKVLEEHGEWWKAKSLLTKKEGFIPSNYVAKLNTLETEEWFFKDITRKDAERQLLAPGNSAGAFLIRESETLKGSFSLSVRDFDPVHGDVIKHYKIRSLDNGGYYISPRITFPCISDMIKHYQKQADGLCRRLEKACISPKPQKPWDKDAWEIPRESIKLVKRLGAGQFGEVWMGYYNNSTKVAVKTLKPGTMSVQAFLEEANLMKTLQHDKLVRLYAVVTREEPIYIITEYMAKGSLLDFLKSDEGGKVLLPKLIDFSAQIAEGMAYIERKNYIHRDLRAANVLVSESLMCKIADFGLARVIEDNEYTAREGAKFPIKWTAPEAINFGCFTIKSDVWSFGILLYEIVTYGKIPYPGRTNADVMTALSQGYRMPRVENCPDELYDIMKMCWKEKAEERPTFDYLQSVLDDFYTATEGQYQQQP
T1 sequence (P00519 whole entry): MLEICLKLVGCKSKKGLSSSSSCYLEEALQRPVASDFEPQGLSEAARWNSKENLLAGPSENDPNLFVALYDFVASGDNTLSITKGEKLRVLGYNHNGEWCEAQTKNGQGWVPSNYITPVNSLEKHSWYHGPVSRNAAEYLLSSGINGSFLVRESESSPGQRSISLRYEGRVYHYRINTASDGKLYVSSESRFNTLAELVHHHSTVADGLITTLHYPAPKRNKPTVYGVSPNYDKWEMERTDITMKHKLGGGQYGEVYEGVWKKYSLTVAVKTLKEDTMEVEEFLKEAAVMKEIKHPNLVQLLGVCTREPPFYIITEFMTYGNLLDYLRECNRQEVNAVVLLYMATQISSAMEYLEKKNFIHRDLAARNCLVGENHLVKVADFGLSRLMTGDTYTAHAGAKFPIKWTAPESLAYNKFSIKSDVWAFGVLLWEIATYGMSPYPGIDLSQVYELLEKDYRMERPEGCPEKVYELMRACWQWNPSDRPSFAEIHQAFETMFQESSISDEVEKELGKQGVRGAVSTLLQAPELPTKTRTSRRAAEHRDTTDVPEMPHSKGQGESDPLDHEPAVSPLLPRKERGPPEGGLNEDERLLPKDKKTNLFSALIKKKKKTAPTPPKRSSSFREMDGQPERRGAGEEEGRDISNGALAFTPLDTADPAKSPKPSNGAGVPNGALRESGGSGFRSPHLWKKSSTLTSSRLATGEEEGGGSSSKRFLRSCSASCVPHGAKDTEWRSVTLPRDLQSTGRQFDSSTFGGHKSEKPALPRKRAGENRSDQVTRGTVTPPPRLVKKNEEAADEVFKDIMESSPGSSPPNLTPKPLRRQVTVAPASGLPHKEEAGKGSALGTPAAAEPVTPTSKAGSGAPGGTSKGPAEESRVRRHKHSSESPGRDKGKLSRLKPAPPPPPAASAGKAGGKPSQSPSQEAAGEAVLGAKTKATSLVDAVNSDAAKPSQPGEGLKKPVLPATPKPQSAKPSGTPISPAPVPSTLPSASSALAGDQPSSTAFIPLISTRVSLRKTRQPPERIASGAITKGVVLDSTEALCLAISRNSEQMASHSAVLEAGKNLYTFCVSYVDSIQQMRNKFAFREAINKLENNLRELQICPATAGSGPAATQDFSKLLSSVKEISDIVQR
T5 sequence (P06241 whole entry): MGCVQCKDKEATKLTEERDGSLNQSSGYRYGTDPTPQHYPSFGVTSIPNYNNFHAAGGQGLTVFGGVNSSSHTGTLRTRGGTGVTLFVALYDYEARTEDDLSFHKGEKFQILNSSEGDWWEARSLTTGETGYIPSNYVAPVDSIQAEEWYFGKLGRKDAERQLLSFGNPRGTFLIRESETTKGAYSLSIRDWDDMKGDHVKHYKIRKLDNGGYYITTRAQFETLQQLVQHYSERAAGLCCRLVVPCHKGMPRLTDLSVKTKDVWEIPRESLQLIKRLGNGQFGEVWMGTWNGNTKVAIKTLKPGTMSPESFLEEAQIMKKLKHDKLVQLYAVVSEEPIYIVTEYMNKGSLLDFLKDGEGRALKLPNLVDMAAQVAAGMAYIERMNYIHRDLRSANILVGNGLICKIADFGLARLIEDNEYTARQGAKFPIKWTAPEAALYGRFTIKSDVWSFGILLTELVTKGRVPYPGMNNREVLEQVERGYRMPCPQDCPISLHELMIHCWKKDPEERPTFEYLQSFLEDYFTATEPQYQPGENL
T3 sequence (Q06187 whole entry): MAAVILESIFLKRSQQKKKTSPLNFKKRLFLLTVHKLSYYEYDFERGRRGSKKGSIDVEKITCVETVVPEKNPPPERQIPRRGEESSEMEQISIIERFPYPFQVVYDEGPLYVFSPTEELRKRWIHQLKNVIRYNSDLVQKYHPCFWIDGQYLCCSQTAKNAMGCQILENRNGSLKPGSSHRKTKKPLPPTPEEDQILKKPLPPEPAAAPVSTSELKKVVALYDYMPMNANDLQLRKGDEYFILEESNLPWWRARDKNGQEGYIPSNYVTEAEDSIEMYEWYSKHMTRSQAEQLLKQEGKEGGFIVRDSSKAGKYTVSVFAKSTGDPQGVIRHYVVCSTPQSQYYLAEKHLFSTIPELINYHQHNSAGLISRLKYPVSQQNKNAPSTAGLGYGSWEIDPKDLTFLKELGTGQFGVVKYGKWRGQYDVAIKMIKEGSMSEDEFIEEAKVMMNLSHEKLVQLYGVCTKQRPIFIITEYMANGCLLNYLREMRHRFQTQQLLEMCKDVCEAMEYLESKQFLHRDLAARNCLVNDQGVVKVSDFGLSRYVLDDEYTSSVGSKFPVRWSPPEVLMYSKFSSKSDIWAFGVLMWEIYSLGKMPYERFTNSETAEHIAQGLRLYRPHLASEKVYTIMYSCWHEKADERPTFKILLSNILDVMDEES
T4 sequence (P41240 whole entry): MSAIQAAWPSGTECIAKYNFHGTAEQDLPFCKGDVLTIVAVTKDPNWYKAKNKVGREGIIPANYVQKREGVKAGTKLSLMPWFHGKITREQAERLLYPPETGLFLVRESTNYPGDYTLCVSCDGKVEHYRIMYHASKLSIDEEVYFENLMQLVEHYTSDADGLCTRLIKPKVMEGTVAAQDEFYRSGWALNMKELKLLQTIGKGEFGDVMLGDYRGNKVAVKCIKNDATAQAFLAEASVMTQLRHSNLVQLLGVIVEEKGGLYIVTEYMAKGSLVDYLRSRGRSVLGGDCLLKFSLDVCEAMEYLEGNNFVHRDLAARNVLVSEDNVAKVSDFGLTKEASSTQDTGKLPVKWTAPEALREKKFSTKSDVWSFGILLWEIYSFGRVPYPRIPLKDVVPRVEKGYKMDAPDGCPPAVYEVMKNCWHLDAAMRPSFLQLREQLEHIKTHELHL
T6 sequence (P06239 whole entry): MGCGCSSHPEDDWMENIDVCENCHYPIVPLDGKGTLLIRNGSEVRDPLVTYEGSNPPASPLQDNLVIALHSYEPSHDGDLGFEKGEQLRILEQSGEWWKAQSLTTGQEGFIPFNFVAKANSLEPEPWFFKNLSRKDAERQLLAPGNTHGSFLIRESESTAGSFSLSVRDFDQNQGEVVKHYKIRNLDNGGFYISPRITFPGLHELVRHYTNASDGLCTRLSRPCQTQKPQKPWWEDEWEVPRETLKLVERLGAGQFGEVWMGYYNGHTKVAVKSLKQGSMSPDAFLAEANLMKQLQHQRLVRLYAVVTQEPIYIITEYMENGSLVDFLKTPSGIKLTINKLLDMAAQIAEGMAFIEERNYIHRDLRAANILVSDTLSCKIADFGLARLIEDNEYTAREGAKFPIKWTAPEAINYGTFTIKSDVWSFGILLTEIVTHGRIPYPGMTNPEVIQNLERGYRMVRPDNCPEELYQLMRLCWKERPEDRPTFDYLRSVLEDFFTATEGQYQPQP

COc1ccccc1/C=C/c1nc(OS(=O)(=O)c2ccc3c(c2)OCO3)c2ccccc2n1 [BS1, 2-((E)-2-(2-methoxyphenyl)ethenyl)quinazolin-4-yl 1,3-benzodioxole-5-sulfonate]
IC50 (HCT 116 p53^+/+ cells; Homo sapiens, HCT 116 p53^+/+, 72 h incubation, MTS): 880 ± 86 nM
Selectivity index, HCT 116 p53+/+ (HCT 116 p53^+/+ cells; NHDF vs HCT 116 p53+/+): 14.25
IC50 (MCF-7 cells; Homo sapiens, MCF7, MCF-7, 72 h incubation, MTS): 8320 ± 1940 nM
Selectivity index, MCF-7 (MCF-7 cells; NHDF vs MCF-7): 1.51
IC50 (A549 cells; Homo sapiens, A549, 72 h, A549, 72 h incubation, MTS): > 25000 nM
Selectivity index, A549 (A549 cells; NHDF vs A549): 1.00
IC50 (U-251 cells [1]; Homo sapiens, U-251, 72 h incubation, MTS): 1900 ± 649 nM
Selectivity index, U-251 (U-251 cells [1]; NHDF vs U-251): 6.61
inhibition at 0.5 µM (ABL1): 28.4%
inhibition at 0.5 µM (BRK): 15.3%
inhibition at 0.5 µM (BTK): 18.8%
inhibition at 0.5 µM (CSK): 0%
inhibition at 0.5 µM (Fyn A): 23.7%
inhibition at 0.5 µM (Lck): 25.8%
inhibition at 0.5 µM (Lyn B): 0%
inhibition at 0.5 µM (Src): 0.19%
Cleavage product of caspase-9 (Western blot) (U-251 cells [2]; U-251, 4 µM, 24 h): approximately three-fold increase
PARP/Reference 89 kDa, densitometric intensity ratio (U-251 cells [2]; [3]): 1.044
caspase-9/Reference 37-35 kDa, densitometric intensity ratio (U-251 cells [2]; [3]): 1.485
BID/Reference 22 kDa, densitometric intensity ratio (U-251 cells [2]; [4]): 0.675
Cathepsin b/Reference 44 kDa, densitometric intensity ratio (U-251 cells [2]; [4]): 2.467
HIF-1α/Reference 120 kDa, densitometric intensity ratio (U-251 cells [2]; [4]): 0.550
PARP/Reference 116 kDa, densitometric intensity ratio (U-251 cells [2]; [4]): 0.871
caspase-9/Reference 47 kDa, densitometric intensity ratio (U-251 cells [2]; [4]): 1.167
cdc2/Reference 34 kDa, densitometric intensity ratio (U-251 cells [2]; [4]): 1.986
cyclin E1/Reference 48 kDa, densitometric intensity ratio (U-251 cells [2]; [4]): 0.576
p21/Reference 21 kDa, densitometric intensity ratio (U-251 cells [2]; [4]): 1.932
p53/Reference 53 kDa, densitometric intensity ratio (U-251 cells [2]; [4]): 1.357
Cathepsin b/Reference 27 kDa, densitometric intensity ratio (U-251 cells [2]; U-251, 4µM, 24 h, control 2.837): 2.726
Cathepsin b/Reference 22 kDa, densitometric intensity ratio (U-251 cells [2]; U-251, 4µM, 24 h, control […]): 2.940
HIF-1α protein expression (Western blot) (U-251 cells [2]; U-251, 24 h): significant decrease
p53 protein levels (Western blot) (U-251 cells [2]; U-251, 24 h): slight increase

Source: article PMC8068801, “Novel Benzenesulfonate Scaffolds with a High Anticancer Activity and G2/M Cell Cycle Arrest” (Cancers, 2021)
